Data on 13 molecules can be found in patent US7915316B2, “Sulfonamides” (Allergan, Inc, priority 2005, dated 2011).

Experiment [1] addresses T1, EP2 (Homo sapiens, UniProt P43116). As to the kind of experiment: cAMP assay. The class given is cell-based. Background: Cyclic AMP is a second messenger, typically raised through Gs and lowered through Gi signalling.
Experiment [2] has as its target T2, EP4 (Homo sapiens, UniProt P35408). As to the kind of experiment: EP4 receptor binding (bhEP4 / EP4 Binding). The note with it: for IC50: Table 1; for EC50 / EP4 Binding % Inh: Table 2.
Experiment [3] addresses T1, EP2. As to the kind of experiment: EP2 receptor binding (bhEP2 / EP2 Binding). Particulars: for IC50: Table 1; for EC50 / EP2 Binding % Inh: Table 2.
Experiment [4] concerns the target T1, EP2. As to the kind of experiment: functional activity at hEP2 (fhEP2). The class given is cell-based. Particulars: Table 1.
Another experiment has as its target T3, TP (Homo sapiens, UniProt P21731).
T3 sequence (P21731 1-343): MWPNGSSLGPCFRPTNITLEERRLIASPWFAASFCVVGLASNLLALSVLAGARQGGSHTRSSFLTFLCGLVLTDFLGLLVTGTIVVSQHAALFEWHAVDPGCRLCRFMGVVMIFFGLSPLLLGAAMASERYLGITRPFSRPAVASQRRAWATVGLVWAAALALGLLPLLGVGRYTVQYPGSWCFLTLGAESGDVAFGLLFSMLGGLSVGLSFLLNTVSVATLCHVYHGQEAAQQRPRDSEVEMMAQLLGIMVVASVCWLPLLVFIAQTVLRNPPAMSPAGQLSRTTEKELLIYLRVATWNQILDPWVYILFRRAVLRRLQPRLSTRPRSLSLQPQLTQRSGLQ
As to the kind of experiment: activity at TP receptor. The note with it: Table 2.

In experiment [5] the target is T1, EP2. As to the kind of experiment: Ca2+ signal, EP2. Particulars: for Emax: relative to PGE2. The class given is cell-based.
Another experiment deals with IP (Homo sapiens, UniProt P43119). As to the kind of experiment: activity at IP receptor. Particulars: Table 2.
Experiment [6] has as its target T2, EP4. As to the kind of experiment: Ca2+ signal, EP4. The class given is cell-based. Particulars: relative to PGE2.
In a further experiment the test system is EP2 and EP4 receptors. As to the kind of experiment: in-vitro assay for binding to and activity at various prostaglandin receptors. The note with it: as compared to the FP, EP1, TP, IP and DP receptors.

One may read the IC50 as the concentration at which inhibition is half-maximal. A higher IC50 goes with weaker potency in that assay. One may read the Emax as the greatest response seen or fitted, relative to the assay's reference.

T2 sequence (P35408 whole entry): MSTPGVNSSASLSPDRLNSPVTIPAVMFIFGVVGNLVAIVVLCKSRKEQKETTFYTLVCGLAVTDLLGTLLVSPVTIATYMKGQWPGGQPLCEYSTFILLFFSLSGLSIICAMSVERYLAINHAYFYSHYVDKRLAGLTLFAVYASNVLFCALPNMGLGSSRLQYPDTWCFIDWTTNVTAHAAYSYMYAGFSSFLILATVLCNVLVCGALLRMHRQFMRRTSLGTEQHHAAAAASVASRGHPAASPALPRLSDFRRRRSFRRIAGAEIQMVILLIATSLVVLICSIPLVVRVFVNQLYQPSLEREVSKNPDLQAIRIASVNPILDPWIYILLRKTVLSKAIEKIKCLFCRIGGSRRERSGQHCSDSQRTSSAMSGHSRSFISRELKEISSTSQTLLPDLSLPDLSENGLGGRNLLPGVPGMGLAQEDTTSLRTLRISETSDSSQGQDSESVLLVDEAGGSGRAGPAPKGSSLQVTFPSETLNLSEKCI
Sequence of IP (P43119 whole entry): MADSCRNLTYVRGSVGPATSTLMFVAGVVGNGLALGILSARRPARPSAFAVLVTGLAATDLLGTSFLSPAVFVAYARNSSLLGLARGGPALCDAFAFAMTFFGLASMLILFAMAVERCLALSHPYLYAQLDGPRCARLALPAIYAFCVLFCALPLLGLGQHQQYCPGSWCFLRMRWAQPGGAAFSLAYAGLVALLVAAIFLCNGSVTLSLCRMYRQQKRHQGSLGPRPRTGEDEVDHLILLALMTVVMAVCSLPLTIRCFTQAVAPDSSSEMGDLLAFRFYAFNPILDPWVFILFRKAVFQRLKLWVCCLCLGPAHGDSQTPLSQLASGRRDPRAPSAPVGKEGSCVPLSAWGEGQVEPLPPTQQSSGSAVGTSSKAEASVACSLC
T1 sequence (P43116 whole entry): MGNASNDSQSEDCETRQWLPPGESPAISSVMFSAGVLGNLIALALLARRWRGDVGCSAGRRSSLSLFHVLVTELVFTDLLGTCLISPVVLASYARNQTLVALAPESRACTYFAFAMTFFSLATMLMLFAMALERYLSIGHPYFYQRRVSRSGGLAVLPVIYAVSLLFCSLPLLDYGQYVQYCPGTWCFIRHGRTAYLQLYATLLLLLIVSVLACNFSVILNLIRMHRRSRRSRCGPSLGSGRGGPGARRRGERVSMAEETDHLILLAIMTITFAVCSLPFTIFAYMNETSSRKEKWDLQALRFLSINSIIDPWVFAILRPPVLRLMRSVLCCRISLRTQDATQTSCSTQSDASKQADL

With `CCCCCC(O)c1ccc(CN(CCCCCCC(=O)O)S(=O)(=O)c2cccnc2)cc1` (centres unmarked), the EC50 was found to be 0.138 µM at EP2 [1] (Table 1, read-out: cAMP) and 0.275 µM at EP2 [4]. The IC50 on EP4 [2] came to 0.546 µM; on EP2 [3], 4.73 µM.

`CS(=O)(=O)N(C/C=C\CCCC(=O)O)CCOc1cc(Cl)cc(Cl)c1` displayed a TP at TP of 7008. Further, the EC50 at EP2 [1] (Table 2, read-out: cAMP EC50) amounted to 0.214 µM; at EP4 [2], 2.92 µM; at EP2 [3], 1.9 µM; on EP2 [5], 2.96 µM. Also, the “EP4 Binding % Inh” value at EP4 [2] was 64%. Moreover, the “EP2 Binding % Inh” value at EP2 [3] came out at 81%. For the same molecule, the Emax at EP2 [5] was 83%; at EP4 [6], 10%. Moreover, the IP at IP was 403.

For the molecule `CS(=O)(=O)N(CC#CCCCC(=O)O)CCOc1cc(Cl)cc(Cl)c1`, the EC50 at EP2 [1] (Table 2, read-out: cAMP EC50) worked out at 0.084 µM; at EP4 [2], 4.17 µM; at EP2 [3], 1.13 µM; at EP2 [5] it was 1.25 µM. Moreover, the “EP4 Binding % Inh” value on EP4 [2] was 55%. Further, on EP2 [3], the “EP2 Binding % Inh” value is reported as 87%. Moreover, the values for the Emax at EP2 [5] and at EP4 [6] were 90% and 5%, respectively. The IP result on IP was “IP = 868”.

As to `CCCCCC(O)c1ccc(CN(Cc2ccc(OCC(=O)O)cc2)S(=O)(=O)c2cccnc2)cc1` (centres unmarked), the EC50 at EP2 [1] (Table 2, read-out: cAMP EC50) was determined as 0.0035 µM; at EP4 [2] it was 1.32 µM; on EP2 [3] it was 0.208 µM; at EP2 [5], 0.011 µM. For the same molecule, the “EP4 Binding % Inh” value at EP4 [2] is 89%. The “EP2 Binding % Inh” value on EP2 [3] is recorded as 97%. Moreover, the Emax at EP2 [5] was 92%; at EP4 [6], 2%.

For the molecule `CC(C)(C)c1ccc(CN(Cc2ccc(OCC(=O)O)cc2)S(=O)(=O)c2cccnc2)cc1` [4-[[4-(1-t-butyl)benzyl]pyridinesulfonylaminomethyl]phenoxyacetic acid], the EC50 at EP2 [1] (Table 2, read-out: cAMP EC50) was found to be 0.018 µM; at EP4 [2] it was 1.34 µM; on EP2 [3], 0.1 µM; on EP2 [5], 0.02 µM. Also, the “EP4 Binding % Inh” value on EP4 [2] was found to be 59%. The “EP2 Binding % Inh” value at EP2 [3] is 93%. Besides, the Emax at EP2 [5] turned out to be 87%; at EP4 [6], 0%.

`CCCCCC(O)c1ccc(CN(CCCCCCC(=O)O)S(=O)(=O)c2ccccc2)cc1` (centres unmarked) [7-[[4-(1-hydroxyhexyl)benzyl]benzenesulfonylamino]heptanoic acid] showed a concentration for half-maximal inhibition (IC50) at EP4 [2] of 0.15 µM. The EC50 at EP2 [4] came out at 0.634 µM.

On to `CCCCCC(O)c1ccc(CN(CC#CCCCC(=O)O)S(C)(=O)=O)cc1` (centres unmarked) [7-[[4-(1-hydroxyhexyl)benzyl]methanesulfonylamino]hept-5-yne-oic acid], for which the EC50 on EP2 [1] (Table 2, read-out: cAMP EC50) was determined as 0.024 µM; on EP2 [3], 5.68 µM; at EP2 [5], 0.62 µM.

For `CCCCCC(O)c1ccc(CN(CCCCCCC(=O)O)S(=O)(=O)c2cccs2)cc1` (centres unmarked) [7-[[4-(1-hydroxyhexyl)benzyl]thiophenesulfonylamino]heptanoic acid], the EC50 on EP2 [1] (Table 1, read-out: cAMP) is > 10 µM; at EP2 [4], 0.6 µM. In addition, the IC50 was found to be 0.09 µM at EP4 [2] and 1.49 µM on EP2 [3].

Turning to `CC(C)(C)c1ccc(CN(CCCCCCC(=O)O)S(=O)(=O)c2ccccc2)cc1` [7-[[4-(1-t-butyl)benzyl]benzenesulfonylamino]heptanoic acid], the EC50 is 0.965 µM on EP2 [1] (Table 2, read-out: cAMP EC50); 0.373 µM on EP4 [2]; 1.54 µM at EP2 [3]; 0.964 µM at EP2 [5]. For the same molecule, at EP4 [2], the “EP4 Binding % Inh” value was determined as 99%. Further, the “EP2 Binding % Inh” value at EP2 [3] was found to be 82%. Besides, the Emax at EP2 [5] is 78%; at EP4 [6], 11%.

Regarding `CC(C)(C)c1ccc(CN(CCCCCCC(=O)O)S(C)(=O)=O)cc1` [7-[[4-(1-t-butyl)benzyl]methanesulfonylamino]heptanoic acid], the EC50 was 0.156 µM on EP2 [1] (Table 2, read-out: cAMP EC50) and 2.31 µM at EP2 [5]. Further, the “EP4 Binding % Inh” value on EP4 [2] was 41%. On EP2 [3], the “EP2 Binding % Inh” value was determined as 60%. Moreover, the Emax on EP2 [5] turned out to be 89%; on EP4 [6], 2%. In addition, the IP entry at IP is “IP = 2561”.

Take `CC(C)(C)c1ccc(CN(CCCCCCC(=O)O)S(=O)(=O)c2cccnc2)cc1` [7-[[4-(1-t-butyl)benzyl]pyridinesulfonylamino]heptanoic acid]: the EC50 worked out at 0.126 µM at EP2 [1] (Table 2, read-out: cAMP EC50); 1.38 µM at EP4 [2]; 0.829 µM at EP2 [3]; 0.591 µM on EP2 [5]. Also, at EP4 [2], the “EP4 Binding % Inh” value is 71%. Besides, the “EP2 Binding % Inh” value at EP2 [3] was 73%. In addition, the Emax amounted to 83% at EP2 [5] and 1% on EP4 [6].

Turning to `CC(C)(C)c1ccc(CN(CCCCCCC(=O)O)S(=O)(=O)c2cccs2)cc1` [7-[[4-(1-t-butyl)benzyl]thiophenelsulfonylamino]heptanoic acid], the EC50 on EP2 [1] (Table 2, read-out: cAMP EC50) came to 1.97 µM; at EP4 [2], 0.706 µM; at EP2 [3], 0.493 µM; on EP2 [5], 1.13 µM. Also, on EP4 [2], the “EP4 Binding % Inh” value is reported as 94%. The “EP2 Binding % Inh” value on EP2 [3] is listed as 76%. Besides, the maximal effect (Emax) stood at 71% at EP2 [5] and 9% at EP4 [6].

In the case of `CCCCCC(O)c1ccc(CN(CCCCCCC(=O)O)S(C)(=O)=O)cc1` (centres unmarked) [Compound 12, 7-[[4-(1-Hydroxyhexyl)benzyl]methanesulfonylamino]heptanoic acid], the EC50 was determined as 0.016 µM at EP2 [1] (Table 1, read-out: cAMP) and 0.406 µM on EP2 [4]. Moreover, on EP2 [3], the IC50 came out at 1.69 µM. The “selectivity at EP2 and EP4 receptors” value in the experiment on EP2 and EP4 receptors is “selective at the EP2 and EP4 receptors”.
